From patent US9365562B2, “1,3 substituted azetidine PDE10 inhibitors” (Merck Sharp & Dohme Corp., priority 2011, dated 2016)

Target: human PDE10A2 (Homo sapiens (Human), UniProt Q9Y233)
Test: PDE10 fluorescence polarization (IMAP FP) inhibition assay
Type: biochemical
Conditions: apparent inhibition constant, FAM-labeled cAMP substrate 50 nM, room temperature
How it was run: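 Cytoplasmic lysate of AD293 cells transiently expressing human PDE10A2, enzyme preincubated 60 min at room temperature with compounds (1% DMSO), then 50 nM FAM-cAMP added for 60 min. Buffer 10 mM Tris HCl pH 7.2, 10 mM MgCl2, 1 mM DTT; IMAP binding reagent stop, FP read after ≥1 h.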

Sequence of human PDE10A2 (Q9Y233 267-1055): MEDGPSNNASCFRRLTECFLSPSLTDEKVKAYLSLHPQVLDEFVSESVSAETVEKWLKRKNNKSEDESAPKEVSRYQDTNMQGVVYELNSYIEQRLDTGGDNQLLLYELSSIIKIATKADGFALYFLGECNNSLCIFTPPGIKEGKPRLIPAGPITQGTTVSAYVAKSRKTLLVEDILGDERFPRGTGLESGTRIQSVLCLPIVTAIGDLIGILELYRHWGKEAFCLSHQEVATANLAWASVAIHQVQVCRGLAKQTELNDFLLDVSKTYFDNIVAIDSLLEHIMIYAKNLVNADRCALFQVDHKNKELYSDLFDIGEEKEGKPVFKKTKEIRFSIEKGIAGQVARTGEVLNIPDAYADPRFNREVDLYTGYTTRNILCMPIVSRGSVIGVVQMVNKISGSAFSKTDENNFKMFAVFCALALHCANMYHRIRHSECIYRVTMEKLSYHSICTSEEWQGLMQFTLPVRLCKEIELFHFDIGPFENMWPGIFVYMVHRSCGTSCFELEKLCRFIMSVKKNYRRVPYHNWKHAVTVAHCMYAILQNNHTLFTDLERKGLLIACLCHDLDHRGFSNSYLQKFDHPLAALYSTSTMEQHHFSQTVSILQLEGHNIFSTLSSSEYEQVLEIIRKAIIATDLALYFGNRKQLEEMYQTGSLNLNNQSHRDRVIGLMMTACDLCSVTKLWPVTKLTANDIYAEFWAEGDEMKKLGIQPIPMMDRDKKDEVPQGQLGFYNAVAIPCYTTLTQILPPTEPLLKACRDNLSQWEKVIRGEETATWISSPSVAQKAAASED

Row | Structure (SMILES) | Ki [nM]
1 | Cc1nc(-c2ccccc2F)cc(N2CC(c3nc4ccccc4n3C)C2)n1 [Example 90, 2-(1-(6-(2-fluorophenyl)-2-methylpyrimidin-4-yl)azetidin-3-yl)-1-methyl-1H-benzo[d]imidazole] | 15
2 | Cc1nc(N2CC(c3nc4ccccc4n3C)C2)cc(-n2nc(C)nc2-c2c(F)cccc2F)n1 [Example 56, 2-(1-(6-(5-(2,6-difluorophenyl)-3-methyl-1H-1,2,4-triazol-1-yl)-2-methylpyrimidin-4-yl)azetidin-3-yl)-1-methyl-1H-benzo[d]imidazole] | 0.24
3 | Cc1nc(N2CC(c3nc4ccccc4n3C)C2)cc(-n2nc(C)nc2Cc2cc(F)ccc2F)n1 [Example 57, 2-(1-(6-(5-(2,5-difluorobenzyl)-3-methyl-1H-1,2,4-triazol-1-yl)-2-methylpyrimidin-4-yl)azetidin-3-yl)-1-methyl-1H-benzo[d]imidazole] | 0.065
4 | COCc1nc(C)nn1-c1cc(N2CC(c3nc4ccccc4n3C)C2)nc(C(F)(F)F)n1 [Example 66, 2-(1-(6-(5-(methoxymethyl)-3-methyl-1H-1,2,4-triazol-1-yl)-2-(trifluoromethyl)pyrimidin-4-yl)azetidin-3-yl)-1-methyl-1H-benzo[d]imidazole] | 0.94
5 | COc1nc(N2CC(c3nc4ccccc4n3C)C2)cc(-n2nc(C)nc2C2CC2)n1 [Example 63, 2-(1-(6-(5-cyclopropyl-3-methyl-1H-1,2,4-triazol-1-yl)-2-methoxypyrimidin-4-yl)azetidin-3-yl)-1-methyl-1H-benzo[d]imidazole] | 1.8
6 | COc1cccnc1-c1cc(N2CC(c3nc4ccccc4n3C)C2)nc(C)n1 [Example 100, 2-(1-(6-(3-methoxypyridin-2-yl)-2-methylpyrimidin-4-yl)azetidin-3-yl)-1-methyl-1H-benzo[d]imidazole] | 41
7 | Cc1nc(N2CC(c3nc4ccccc4n3C)C2)cc(-n2ccc(C(F)(F)F)n2)n1 [Example 11, 1-methyl-2-(1-(2-methyl-6-(3-(trifluoromethyl)-1H-pyrazol-1-yl)pyrimidin-4-yl)azetidin-3-yl)-1H-benzo[d]imidazole] | 0.76
8 | COc1ccccc1-c1cc(N2CC(c3nc4ccccc4n3C)C2)nc(C)n1 [Example 89, 2-(1-(6-(2-methoxyphenyl)-2-methylpyrimidin-4-yl)azetidin-3-yl)-1-methyl-1H-benzo[d]imidazole] | 63
9 | Cc1nc(C)n(-c2cc(N3CC(c4nc5ccccc5n4C)C3)nc(C#N)n2)n1 [Example 79, 4-(3,5-dimethyl-1H-1,2,4-triazol-1-yl)-6-[3-(1-methyl-1H-benzimidazol-2-yl)azetidin-1-yl]pyrimidine-2-carbonitrile] | 0.28
10 | Cc1nc(N2CC(c3nc4c(F)cccc4n3C)C2)cc(-n2nc(C)nc2C)n1 [Example 122, 2-(1-(6-(3,5-dimethyl-1H-1,2,4-triazol-1-yl)-2-methylpyrimidin-4-yl)azetidin-3-yl)-4-fluoro-1-methyl-1H-benzo[d]imidazole] | 17
11 | Cc1nc(N2CC(c3nc4ccccc4n3C)C2)cc(-n2cc(C)c(C)n2)n1 [Example 8, 2-(1-(6-(3,4-dimethyl-1H-pyrazol-1-yl)-2-methylpyrimidin-4-yl)azetidin-3-yl)-1-methyl-1H-benzo[d]imidazole] | 0.63
12 | CC(=O)Nc1ncccc1-c1cc(N2CC(c3nc4ccccc4n3C)C2)nc(C)n1 [Example 83, N-(3-(2-methyl-6-(3-(1-methyl-1H-benzo[d]imidazol-2-yl)azetidin-1-yl)pyrimidin-4-yl)pyridin-2-yl)acetamide] | 75
13 | Cc1ccc2nc(C3CN(c4cc(-n5nc(C)nc5C)nc(C)n4)C3)[nH]c2c1 [Example 111, 2-(1-(6-(3,5-dimethyl-1H-1,2,4-triazol-1-yl)-2-methylpyrimidin-4-yl)azetidin-3-yl)-6-methyl-1H-benzo[d]imidazole] | 39
14 | Cc1nc(N2CC(c3nc4ccccc4n3C)C2)cc(-n2cc(CO)cn2)n1 [Example 19, (1-(2-methyl-6-(3-(1-methyl-1H-benzo[d]imidazol-2-yl)azetidin-1-yl)pyrimidin 4-yl)-1H-pyrazol-4-yl)methanol] | 8.3
15 | CC(=O)c1ccc(-c2cc(N3CC(c4nc5ccccc5n4C)C3)nc(C)n2)nc1 [Example 102, 1-(6-(2-methyl-6-(3-(1-methyl-1H-benzo[d]imidazol-2-yl)azetidin-1-yl)pyrimidin-4-yl)pyridin-3-yl)ethanone] | 9
16 | Cc1ccc(C2CN(c3cc(-n4nc(C)nc4C)nc(C)n3)C2)nc1 [Example 126, 4-(3,5-Dimethyl-1H-1,2,4-triazol-1-yl)-2-methyl-6-[3-(5-methylpyridin-2-yl)azetidin-1-yl]pyrimidine] | 407
17 | CCn1c(C2CN(c3cc(-n4nc(C)nc4C)nc(C)n3)C2)nc2ccccc21 [Example 114, 2-(1-(6-(3,5-Dimethyl-1H-1,2,4-triazol-1-yl)-2-methylpyrimidin-4-yl)azetidin-3-yl)-1-ethyl-1H-benzo[d]imidazole] | 5.9
18 | Cc1ccc(-c2nc(C)nn2-c2cc(N3CC(c4nc5ccccc5n4C)C3)nc(C)n2)cn1 [Example 55, 1-methyl-2-(1-(2-methyl-6-(3-methyl-5-(6-methylpyridin-3-yl)-1H-1,2,4-triazol-1-yl)pyrimidin-4-yl)azetidin-3-yl)-1H-benzo[d]imidazole] | 10
19 | Cc1cn(-c2cc(N3CC(c4nc5ccccc5n4C)C3)nc(C(F)(F)F)n2)nn1 [Example 30, 1-methyl-2-(1-(6-(4-methyl-1H-1,2,3-triazol-1-yl)-2-(trifluoromethyl)pyrimidin-4-yl)azetidin-3-yl)-1H-benzo[d]imidazole] | 5.6
20 | COC(=O)CCc1nc(C)nn1-c1cc(N2CC(c3nc4ccccc4n3C)C2)nc(C)n1 [Example 43, methyl 3-(3-methyl-1-(2-methyl-6-(3-(1-methyl-1H-benzo[d]imidazol-2-yl)azetidin-1-yl)pyrimidin-4-yl)-1H-1,2,4-triazol-5-yl)propanoate] | 0.49
21 | Cc1nc(N2CC(c3nc4c(C)cccc4n3C)C2)cc(-n2nc(C)nc2C)n1 [Example 124, 2-(1-(6-(3,5-dimethyl-1H-1,2,4-triazol-1-yl)-2-methylpyrimidin-4-yl)azetidin-3-yl)-1,4-dimethyl-1H-benzo[d]imidazole] | 22
22 | Cc1nc(N2CC(c3nc4ccccc4n3C)C2)cc(-n2nc(C)nc2C(C)C)n1 [Example 39, 2-(1-(6-(5-isopropyl-3-methyl-1H-1,2,4-triazol-1-yl)-2-methylpyrimidin-4-yl)azetidin-3-yl)-1-methyl-1H-benzo[d]imidazole] | 3.1
23 | Cc1cccc(-c2cc(N3CC(c4nc5ccccc5n4C)C3)nc(C)n2)n1 [Example 98, 1-methyl-2-(1-(2-methyl-6-(6-methylpyridin-2-yl)pyrimidin-4-yl)azetidin-3-yl)-1H-benzo[d]imidazole] | 5.5
24 | CCOCCn1c(C2CN(c3cc(-n4nc(C)nc4C)nc(C)n3)C2)nc2ccccc21 [Example 120, 2-(1-(6-(3,5-dimethyl-1H-1,2,4-triazol-1-yl)-2-methylpyrimidin-4-yl)azetidin-3-yl)-1-(2-ethoxyethyl)-1H-benzo[d]imidazole] | 8.5
25 | Cc1nc(N2CC(c3nc4ccccc4n3C)C2)cc(-n2nc(C)c(C)c2C)n1 [Example 9, 1-methyl-2-(1-(2-methyl-6-(3,4,5-trimethyl-1H-pyrazol-1-yl)pyrimidin-4-yl)azetidin-3-yl)-1H-benzo[d]imidazole] | 0.93
